Tests used:
Assay in all cases: KINOMEscan competition binding
Details in all cases: compound 1.0 µM
[1] = target: ACVR2B (human) (UniProt Q13705)
[2] = target: ANKK1 (human) (UniProt Q8NFD2)
[3] = target: AXL (human) (UniProt P30530)
[4] = target: BRSK1 (human) (UniProt Q8TDC3)
[5] = target: CDC42BPB (human) (UniProt Q9Y5S2)
[6] = target: CDK15 (human) (UniProt Q96Q40)
[7] = target: CDK19 (human) (UniProt Q9BWU1)
[8] = target: CDK4 CCND3 (human) (UniProt P11802+P30281)
[9] = target: CDKL3 (human) (UniProt Q8IVW4)
[10] = target: CDKL5 (human) (UniProt O76039)
[11] = target: CHUK (human) (UniProt O15111)
[12] = target: CLK1 (human) (UniProt P49759)
[13] = target: DAPK2 (human) (UniProt Q9UIK4)
[14] = target: EPHA3 (human) (UniProt P29320)
[15] = target: EPHA8 (human) (UniProt P29322)
[16] = target: ERBB3 (human) (UniProt P21860)
[17] = target: ERN1 (human) (UniProt O75460)
[18] = target: FGFR1 (human) (UniProt P11362)
[19] = target: FGFR2 (human) (UniProt P21802)
[20] = target: HUNK (human) (UniProt P57058)
[21] = target: IKBKB (human) (UniProt O14920)
[22] = target: MAP2K3 (human) (UniProt P46734)
[23] = target: MAP4K3 (human) (UniProt Q8IVH8)
[24] = target: MAPK8 (human) (UniProt P45983)
[25] = target: MET (human) (UniProt P08581)
[26] = tested on: MET (human), P08581 [Y1235D]
[27] = target: NTRK1 (human) (UniProt P04629)
[28] = target: PIK3C2G (human) (UniProt O75747)
[29] = tested on: PIK3CA (human), P42336 [E545A]
[30] = target: PIK3CB (human) (UniProt P42338)
[31] = target: PIM3 (human) (UniProt Q86V86)
[32] = target: PRKG1 (human) (UniProt Q13976)
[33] = target: PRKG2 (human) (UniProt Q13237)
[34] = tested on: RET (human), P07949 [V804L]
[35] = target: ROCK2 (human) (UniProt O75116)
[36] = target: RPS6KA2 KD2 (human) (UniProt Q15349)
[37] = target: RPS6KA5 KD1 (human) (UniProt O75582)
[38] = target: SGK110 (human) (UniProt P0C264)
[39] = target: SGK3 (human) (UniProt Q96BR1)
[40] = target: SIK1 (human) (UniProt P57059)
[41] = target: STK38L (human) (UniProt Q9Y2H1)
[42] = target: WEE1 (human) (UniProt P30291)
[43] = target: YES1 (human) (UniProt P07947)

SIK1 (human), sequence (P57059 whole entry, looked up): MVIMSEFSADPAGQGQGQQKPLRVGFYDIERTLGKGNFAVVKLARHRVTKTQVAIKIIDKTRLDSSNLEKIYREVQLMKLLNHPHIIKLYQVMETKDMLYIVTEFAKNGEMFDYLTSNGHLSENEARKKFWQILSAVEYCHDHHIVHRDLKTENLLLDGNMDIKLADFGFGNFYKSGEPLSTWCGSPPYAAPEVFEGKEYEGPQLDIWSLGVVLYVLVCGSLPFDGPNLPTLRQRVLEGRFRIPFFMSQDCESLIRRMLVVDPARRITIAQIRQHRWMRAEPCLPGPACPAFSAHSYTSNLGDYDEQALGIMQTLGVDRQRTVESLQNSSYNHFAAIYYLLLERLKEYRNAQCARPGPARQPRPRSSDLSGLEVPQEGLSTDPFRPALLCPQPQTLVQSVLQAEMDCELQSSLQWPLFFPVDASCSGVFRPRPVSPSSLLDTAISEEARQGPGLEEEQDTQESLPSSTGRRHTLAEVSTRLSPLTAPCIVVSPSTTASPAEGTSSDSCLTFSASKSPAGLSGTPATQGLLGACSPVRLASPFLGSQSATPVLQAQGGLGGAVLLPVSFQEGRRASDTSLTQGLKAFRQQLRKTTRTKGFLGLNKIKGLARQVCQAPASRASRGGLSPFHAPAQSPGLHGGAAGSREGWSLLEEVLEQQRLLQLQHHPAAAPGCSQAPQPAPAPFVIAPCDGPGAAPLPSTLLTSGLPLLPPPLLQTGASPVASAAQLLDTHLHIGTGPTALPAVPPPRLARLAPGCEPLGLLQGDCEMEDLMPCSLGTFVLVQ
WEE1 (human), sequence (P30291 whole entry, looked up): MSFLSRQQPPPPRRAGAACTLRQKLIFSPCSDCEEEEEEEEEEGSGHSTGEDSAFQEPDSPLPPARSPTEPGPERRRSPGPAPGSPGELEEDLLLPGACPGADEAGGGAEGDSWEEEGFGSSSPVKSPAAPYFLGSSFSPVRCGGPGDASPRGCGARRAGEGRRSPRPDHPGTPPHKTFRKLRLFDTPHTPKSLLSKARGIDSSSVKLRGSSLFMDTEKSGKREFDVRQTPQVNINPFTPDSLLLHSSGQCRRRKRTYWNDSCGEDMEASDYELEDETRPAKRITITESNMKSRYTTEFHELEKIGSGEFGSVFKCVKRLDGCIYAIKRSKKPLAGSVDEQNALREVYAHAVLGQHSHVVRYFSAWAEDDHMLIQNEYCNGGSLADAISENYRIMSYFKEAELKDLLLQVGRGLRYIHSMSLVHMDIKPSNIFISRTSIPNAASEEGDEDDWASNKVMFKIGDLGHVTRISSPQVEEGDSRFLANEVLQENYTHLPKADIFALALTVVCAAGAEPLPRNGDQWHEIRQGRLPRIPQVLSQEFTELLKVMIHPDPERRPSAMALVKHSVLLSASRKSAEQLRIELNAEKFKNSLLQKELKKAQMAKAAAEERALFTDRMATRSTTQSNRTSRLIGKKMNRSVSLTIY
FGFR2 (human), sequence (P21802 whole entry, looked up): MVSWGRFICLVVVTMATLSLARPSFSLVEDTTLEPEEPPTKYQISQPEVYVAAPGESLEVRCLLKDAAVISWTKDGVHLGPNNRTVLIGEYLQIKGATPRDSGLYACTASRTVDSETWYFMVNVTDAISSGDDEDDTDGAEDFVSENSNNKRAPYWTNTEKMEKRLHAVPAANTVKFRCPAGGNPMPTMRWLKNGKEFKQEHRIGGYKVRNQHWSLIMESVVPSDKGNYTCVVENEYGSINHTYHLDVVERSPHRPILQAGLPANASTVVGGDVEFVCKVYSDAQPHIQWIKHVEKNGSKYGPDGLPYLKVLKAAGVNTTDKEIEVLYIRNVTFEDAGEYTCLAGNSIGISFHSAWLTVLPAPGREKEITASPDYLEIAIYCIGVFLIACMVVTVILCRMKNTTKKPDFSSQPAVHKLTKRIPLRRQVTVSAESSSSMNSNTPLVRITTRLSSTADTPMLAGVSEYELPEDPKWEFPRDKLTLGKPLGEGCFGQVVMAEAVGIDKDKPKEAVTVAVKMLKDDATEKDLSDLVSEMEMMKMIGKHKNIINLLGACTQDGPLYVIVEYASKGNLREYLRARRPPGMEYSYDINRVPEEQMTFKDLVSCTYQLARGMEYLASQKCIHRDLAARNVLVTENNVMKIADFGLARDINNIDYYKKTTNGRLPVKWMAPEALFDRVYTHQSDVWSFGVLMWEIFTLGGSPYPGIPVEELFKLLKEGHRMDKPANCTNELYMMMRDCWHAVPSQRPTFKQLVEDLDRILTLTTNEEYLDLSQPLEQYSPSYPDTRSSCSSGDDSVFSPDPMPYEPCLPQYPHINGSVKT
PRKG1 (human), sequence (Q13976 whole entry, looked up): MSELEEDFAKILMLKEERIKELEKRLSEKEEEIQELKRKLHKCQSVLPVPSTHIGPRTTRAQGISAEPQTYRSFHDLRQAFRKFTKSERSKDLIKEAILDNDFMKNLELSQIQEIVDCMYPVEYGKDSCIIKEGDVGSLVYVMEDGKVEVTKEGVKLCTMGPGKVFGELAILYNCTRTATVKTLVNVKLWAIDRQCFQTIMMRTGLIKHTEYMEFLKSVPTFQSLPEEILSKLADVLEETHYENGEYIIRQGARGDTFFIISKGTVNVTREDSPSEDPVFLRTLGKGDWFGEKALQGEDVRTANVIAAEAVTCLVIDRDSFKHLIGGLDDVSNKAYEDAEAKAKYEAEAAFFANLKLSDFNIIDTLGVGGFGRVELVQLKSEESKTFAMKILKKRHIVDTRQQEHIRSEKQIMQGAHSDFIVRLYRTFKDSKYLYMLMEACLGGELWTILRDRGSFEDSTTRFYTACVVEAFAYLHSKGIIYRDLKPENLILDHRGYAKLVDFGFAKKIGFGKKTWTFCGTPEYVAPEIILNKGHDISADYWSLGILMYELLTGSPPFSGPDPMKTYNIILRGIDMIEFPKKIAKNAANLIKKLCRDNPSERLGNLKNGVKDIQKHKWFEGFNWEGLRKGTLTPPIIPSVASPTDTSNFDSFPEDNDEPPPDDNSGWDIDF
FGFR1 (human), sequence (P11362 whole entry, looked up): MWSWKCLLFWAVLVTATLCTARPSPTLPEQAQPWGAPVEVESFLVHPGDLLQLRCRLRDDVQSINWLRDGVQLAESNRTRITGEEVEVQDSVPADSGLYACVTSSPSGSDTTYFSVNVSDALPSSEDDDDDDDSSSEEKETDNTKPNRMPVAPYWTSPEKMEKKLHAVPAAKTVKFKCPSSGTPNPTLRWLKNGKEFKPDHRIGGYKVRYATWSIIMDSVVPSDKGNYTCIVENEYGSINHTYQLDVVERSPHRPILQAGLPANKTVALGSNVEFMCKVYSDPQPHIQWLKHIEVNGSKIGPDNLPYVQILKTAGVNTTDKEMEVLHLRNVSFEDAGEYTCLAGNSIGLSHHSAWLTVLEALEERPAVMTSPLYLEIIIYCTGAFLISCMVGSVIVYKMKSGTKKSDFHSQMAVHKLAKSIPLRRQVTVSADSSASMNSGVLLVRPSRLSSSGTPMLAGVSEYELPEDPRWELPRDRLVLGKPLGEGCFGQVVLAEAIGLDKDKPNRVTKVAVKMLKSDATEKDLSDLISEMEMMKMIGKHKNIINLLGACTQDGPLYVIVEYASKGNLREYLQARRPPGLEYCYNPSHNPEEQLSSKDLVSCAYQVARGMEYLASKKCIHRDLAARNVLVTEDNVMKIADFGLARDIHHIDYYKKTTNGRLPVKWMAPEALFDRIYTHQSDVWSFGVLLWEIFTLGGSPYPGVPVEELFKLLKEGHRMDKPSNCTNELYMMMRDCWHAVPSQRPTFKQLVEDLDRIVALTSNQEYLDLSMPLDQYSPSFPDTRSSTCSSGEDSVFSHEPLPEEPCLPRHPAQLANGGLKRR
PRKG2 (human), sequence (Q13237 whole entry, looked up): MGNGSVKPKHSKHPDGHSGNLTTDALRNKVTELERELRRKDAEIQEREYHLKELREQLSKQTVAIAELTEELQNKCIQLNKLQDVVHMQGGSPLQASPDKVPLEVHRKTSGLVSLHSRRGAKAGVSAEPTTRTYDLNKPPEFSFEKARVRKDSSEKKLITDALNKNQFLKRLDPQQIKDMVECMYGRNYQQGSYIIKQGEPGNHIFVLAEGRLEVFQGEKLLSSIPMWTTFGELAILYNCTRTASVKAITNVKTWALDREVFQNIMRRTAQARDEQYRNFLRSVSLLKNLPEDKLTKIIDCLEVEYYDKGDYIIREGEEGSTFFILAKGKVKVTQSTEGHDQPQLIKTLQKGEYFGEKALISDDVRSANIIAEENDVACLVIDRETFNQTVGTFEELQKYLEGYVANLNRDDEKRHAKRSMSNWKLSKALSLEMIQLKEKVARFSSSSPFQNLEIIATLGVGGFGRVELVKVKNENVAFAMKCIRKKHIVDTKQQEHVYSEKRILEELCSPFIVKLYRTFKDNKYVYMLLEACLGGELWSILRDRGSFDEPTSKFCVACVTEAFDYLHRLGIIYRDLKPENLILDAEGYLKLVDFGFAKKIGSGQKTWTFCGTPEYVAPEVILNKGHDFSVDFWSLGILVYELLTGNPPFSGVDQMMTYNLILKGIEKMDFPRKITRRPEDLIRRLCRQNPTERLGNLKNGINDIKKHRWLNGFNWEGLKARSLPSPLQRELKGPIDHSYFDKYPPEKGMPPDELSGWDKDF
CDK15 (human), sequence (Q96Q40 whole entry, looked up): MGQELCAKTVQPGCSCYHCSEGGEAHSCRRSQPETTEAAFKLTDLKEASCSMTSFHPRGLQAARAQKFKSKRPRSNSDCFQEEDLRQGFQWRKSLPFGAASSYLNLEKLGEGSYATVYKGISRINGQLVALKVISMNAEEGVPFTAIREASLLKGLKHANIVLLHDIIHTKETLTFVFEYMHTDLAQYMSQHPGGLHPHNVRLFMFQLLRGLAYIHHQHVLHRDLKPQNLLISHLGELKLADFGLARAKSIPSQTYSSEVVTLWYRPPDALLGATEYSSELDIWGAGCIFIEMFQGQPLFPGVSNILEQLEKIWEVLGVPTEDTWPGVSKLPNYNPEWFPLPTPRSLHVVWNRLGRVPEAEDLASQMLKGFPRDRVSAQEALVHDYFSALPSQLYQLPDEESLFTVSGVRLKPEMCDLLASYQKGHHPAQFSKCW

COCCNCCCn1c(C(=O)CF)c(-c2ccc(C)cc2)c2c(N)ncnc21 was tested, and the kinase still bound, per cent of control [1] was 95%, the kinase still bound, per cent of control [2] was 100% and the kinase still bound, per cent of control [3] was 81%. It also gave a kinase still bound, per cent of control [4] of 82%, a kinase still bound, per cent of control [5] of 94% and a kinase still bound, per cent of control [6] of 100%. For the same compound, the kinase still bound, per cent of control [7] was 98%, the kinase still bound, per cent of control [8] was 100% and the kinase still bound, per cent of control [9] was 88%. It also gave a kinase still bound, per cent of control [10] of 100%, a kinase still bound, per cent of control [11] of 72% and a kinase still bound, per cent of control [12] of 87%. It also gave a kinase still bound, per cent of control [13] of 97%, a kinase still bound, per cent of control [14] of 88% and a kinase still bound, per cent of control [15] of 75%. It also gave a kinase still bound, per cent of control [16] of 96%, a kinase still bound, per cent of control [17] of 99% and a kinase still bound, per cent of control [18] of 98%. For the same compound, the kinase still bound, per cent of control [19] was 100%, the kinase still bound, per cent of control [20] was 100% and the kinase still bound, per cent of control [21] was 95%. It also gave a kinase still bound, per cent of control [22] of 97%, a kinase still bound, per cent of control [23] of 100% and a kinase still bound, per cent of control [24] of 96%. The kinase still bound, per cent of control [25] was 97%, the kinase still bound, per cent of control [26] was 81% and the kinase still bound, per cent of control [27] was 82%. For the same compound, the kinase still bound, per cent of control [28] was 92%, the kinase still bound, per cent of control [29] was 100% and the kinase still bound, per cent of control [30] was 89%. The kinase still bound, per cent of control [31] was 100%, the kinase still bound, per cent of control [32] was 100% and the kinase still bound, per cent of control [33] was 98%. For the same compound, the kinase still bound, per cent of control [34] was 100%, the kinase still bound, per cent of control [35] was 94% and the kinase still bound, per cent of control [36] was 95%. It also gave a kinase still bound, per cent of control [37] of 79%, a kinase still bound, per cent of control [38] of 100% and a kinase still bound, per cent of control [39] of 79%. The kinase still bound, per cent of control [40] was 98%, the kinase still bound, per cent of control [41] was 92% and the kinase still bound, per cent of control [42] was 94%. For the same compound, the kinase still bound, per cent of control [43] was 92%.
